In US20030186339A1, “Individualization of therapy with antibiotic agents” (McGill University, priority 2001, published 2003):
Read-outs that look alike come from different tables or passages of the source. Marks after values point to notes of the source that are not given here.

Assays:
AAMU-Ab = test: Competitive antigen ELISA, cross-reactivity of AAMU-Ab; type: binding, rabbit; settings: for % Cross-Reaction AAMU-Ab: competitive antigen ELISA, 0 = absence of inhibition or inhibition no higher than 40% at highest concentration tested (5×10^−3 M)
Description: (§1) Competitive Antigen ELISA
(§2) Buffers and water without additives are filtered through millipore filters and kept for 1 week. BSA, antibodies, Tween™ 20 and horse radish peroxidase conjugates are added to these buffers and water just prior to use. Urine samples are usually collected 4 hours after drinking a cup of coffee (instant or brewed with approximately 100 mg of caffeine per cup) and stored at −80° C. The urine samples are diluted 10 times with sodium phosphate buffer (620 mosm, pH 7.50) and are subsequently diluted with water to give concentrations of AAMU and 1X no higher than 3×10^−6 M in the ELISA. All the pipettings are done with an eight-channel pipette, except those of the antibody and sample solutions. Starting with the last well, 100 μL of a carbonate buffer (100 mM, pH 9.6) containing 2.5 μg mL-1 antibodies are added to each well. After 90 min. at room temperature, the wells are washed three times with […] of TPB: isotonic sodium phosphate buffer (310 mosm, pH 7.50) containing 0.05% Tween™ 20.
(§3) After the initial wash, unoccupied sites are blocked by incubation for 90 min. at room temperature with 100 μL TBP containing 3% BSA. The wells are washed four times with 100 μL TPB. […] The microplate is gently shaken with an orbital shaker at room temperature for 3-4 hours. The wells are washed three times with 100 μL TPB containing 1% BSA and three times with water containing 0.05% Tween™ 20. To the washed plate is added 150 μL of a substrate buffer composed of citric acid (25 mM) and sodium phosphate dibasic buffer (50 mM, pH 5.0) containing 0.06% hydrogen peroxide and 0.04% o-phenylenediamine hydrochloride.
(§4) Buffers and water without additives were filtered through millipore filters and kept for 1 week. BSA, antibodies, Tween™ 20 and horse radish peroxidase conjugates were added to these buffers and water just prior to use. Urine samples were usually collected 4 hours after drinking a cup of coffee (instant or brewed with approximately 100 mg of caffeine per cup) and stored at −80° C. They were diluted 10 times with sodium phosphate buffer (620 mosm, pH 7.50) and were subsequently diluted with water to give concentrations of AAMU and 1X no higher than 3×10^−6 M in the ELISA. All the pipettings were done with an eight-channel pipette, except those of the antibody and sample solutions. Starting with the last well, 100 μL of a carbonate buffer (100 mM, pH 9.6) containing 2.5 μg mL-1 antibodies was pipetted. After 90 min. at room temperature, the wells were washed three times with 100 μL of TPB: isotonic sodium phosphate buffer (310 mosm, pH 7.50) containing 0.05% Tween™ 20.
(§5) After the initial wash, unoccupied sites were blocked by incubation for 90 min. at room temperature with […] TBP containing 3% BSA. The wells were washed four times with 100 μL TPB. […] The microplate was gently shaken with an orbital shaker at room temperature for 3-4 hours. The wells were washed three times with 100 μL with TPB containing 1% BSA and three times with water containing 0.05% Tween™ 20. To the washed plate was added 150 μL of a substrate buffer composed of citric acid (25 mM) and sodium phosphate dibasic buffer (50 mM, pH 5.0) containing 0.06% hydrogen peroxide and 0.04% o-phenylenediamine hydrochloride. After 20 min. at room temperature with shaking, the reaction was stopped with 50 μL of 2.5 N HCl.
(§6) The cross reactivities of AAMU-Ab and 1X-Ab were tested using a wide variety of caffeine metabolites and structural analogs (Table 2 below).

1X-Ab = test: Competitive antigen ELISA, cross-reactivity of 1X-Ab; type: binding, rabbit; settings: for % Cross-Reaction 1X-Ab: competitive antigen ELISA, 0 = absence of inhibition or inhibition no higher than 40% at highest concentration tested (5×10^−3 M)
Description: as §1, §2, §3, §4, §5, §6

[1] = cited from earlier work
[2] = cited from earlier work; remark: listed apart in the source
[3] = healthy volunteers; cited from earlier work
S. pneumoniae = settings: once a day for 10 days, acute bacterial exacerbation of chronic bronchitis; cited from earlier work

SMILES | % Cross-Reaction AAMU-Ab (AAMU-Ab) | % Cross-Reaction 1X-Ab (1X-Ab) | other results
Cn1c(=O)[nH]c2nc[nH]c2c1=O [1-Methyl Xanthine (1X), 1-Methyl Xanthine] | 0% | 100% | IC50 (1X-Ab; read-out: concentration required for 50% inhibition in the competitive antigen ELISA, 1X-Ab, 1X-HRP conjugate): 10 µM
C[C@H]1c2cccc(O)c2C(=O)C2=C(O)[C@]3(O)C(=O)C(C(N)=O)=C(O)[C@@H](N(C)C)[C@@H]3[C@@H](O)[C@@H]21 [Doxycycline] |  |  | serum half-life ([1]; human, in vivo): 17 to 20 h
Nc1ccc(S(=O)(=O)c2ccc(N)cc2)cc1 [dapsone] |  |  | adverse reactions to dapsone ([2]; fast acetylators): 17%; adverse reactions to dapsone ([2]; slow acetylators): 46%
O=c1[nH]c(=O)c2[nH]cnc2[nH]1 [Xanthine] | 0^a % | 0% | 
Cn1cnc2[nH]c(=O)[nH]c(=O)c21 [7-Methyl Xanthine] | 0% | 0% | 
Nc1nc2nc[nH]c2c(=O)[nH]1 [Guanine] | 0% | 0% | 
O=C(N[C@H](CO)[C@H](O)c1ccc([N+](=O)[O-])cc1)C(Cl)Cl [Chloramphenicol] |  |  | CSF concentrations as % of serum levels ([1]; human, in vivo): 30-50%
CC(=O)Nc1c(N)n(C)c(=O)[nH]c1=O [5-Acetamino-6-amino-1-methyluracil] | 100% | 0% | IC50 (AAMU-Ab; read-out: concentration required for 50% inhibition in the competitive antigen ELISA, AAMU-Ab, AAMU-HRP conjugate): 1.5 µM
CC(=O)Nc1c(N)n(C)c(=O)n(C)c1=O [5-Acetamino-6-amino-1,3-dimethyluracil] | 0% | 0% | 
CC1(C)S[C@@H]2[C@H](NC(=O)Cc3ccccc3)C(=O)N2[C@H]1C(=O)O.CC1(C)S[C@@H]2[C@H](NC(=O)Cc3ccccc3)C(=O)N2[C@H]1C(=O)O.c1ccc(CNCCNCc2ccccc2)cc1 [Benzathine penicillin G] |  |  | duration of low sustained serum levels of penicillin G ([1]; human, in vivo): 1-3 weeks
O=c1[nH]cnc2nc[nH]c12 [Hypoxanthine] | 0% | 0% | 
Cn1c(=O)[nH]c2ncn(C)c2c1=O [1,7-Dimethyl Xanthine (Paraxanthine), 1,7-Dimethyl Xanthine] | 0% | 0.5% | 
Cc1c(F)c(N2CCNC(C)C2)cc2c1c(=O)c(C(=O)O)cn2C1CC1 (stereo not drawn) [Grepafloxacin, grepafloxacin] |  |  | effect on QTc interval [3]: Prolongation of the QTc Intervals has been observed; effectiveness against S. pneumoniae, 400 mg per day vs 600 mg per day (S. pneumoniae): may be less effective; time to peak plasma drug concentration after dosing ([1]; human, in vivo): 2 to 3 h; time to steady state concentrations ([1]; once-a-day dosing): ≤ 7 days; bioavailability ([1]; oral): approximately 70%
O=c1[nH]c(=O)c2[nH]c(=O)[nH]c2[nH]1 [Uric acid] | 0% | 0% | 
O=c1cc[nH]c(=O)[nH]1 [Uracil] | 0% | 0% | 
Cn1c(=O)c2[nH]cnc2n(C)c1=O [1,3-Dimethyl Xanthine (Theophylline), 1,3-Dimethyl Xanthine] | 0% | 0.2% | 
Cn1c(=O)[nH]c(=O)c2[nH]cnc21 [3-Methyl Xanthine] | 0% | 0% | 
Cc1nc2[nH]c(=O)[nH]c(=O)c2[nH]1 [8-Methyl Xanthine] | 0% | 0% | 
Cn1c(=O)[nH]c2[nH]c(=O)n(C)c2c1=O [1,7-Dimethyluric acid] | 0% | 0% | 
Cn1c(=O)c2c(ncn2C)n(C)c1=O [1,3,7-Trimethyl Xanthine (Caffeine), 1,3,7-Trimethyl Xanthine] | 0% | 0% | 
Cn1c(=O)[nH]c2[nH]c(=O)[nH]c2c1=O [1-Methyluric acid] | 0% | 11% | 
CC(=O)Nc1c(N)[nH]c(=O)[nH]c1=O [5-Acetamino-6-amino-uracil] | 0.6% | 0% | 
Cn1cnc2c1c(=O)[nH]c(=O)n2C [3,7-Dimethyl Xanthine (Theobromine), 3,7-Dimethyl Xanthine] | 0% | 0% | 
